Measured values: US8182844B2, “Use of Clerodendrum sp. for treating tic disorders or psychiatric disorders with sensorimotor gating deficits” (priority 2010, dated 2012)

tested on: methamphetamine-induced PPI disruption in mice; assay: Methamphetamine-induced disruption of prepulse inhibition of the startle response (PPI), dopamine hypothesis model; assay type: in vivo, mouse; settings: diazepam, dose not given; methamphetamine 2 mg/kg; FIG. 2B
From the text: PPI is a neurophysiological phenomenon that the startle response to a stimulus, which could be a sound, an airpuff or a light, is inhibited if a stimulus with the same source but at weaker intensity prior to the stimulus was applied within a short interval. This is a fast neuroadaptative system to protect the living organisms from startle stimulation. It is believed to be a processing protection in a living organism that PPI serves as a sensorimotor gating, a pre-conscious regulator of attention, to reduce the startle response which is harmful to the information professing. […] PPI can be assessed by the motor response in either humans (measuring the eyeblink response by electromyograph) or animals (measuring the startle response).
Mice were i.p. injected by methamphetamine (2 mg/kg) to induce PPI disruption, as a schizophrenia model based on dopamine hypothesis. PPI was measured using the SR-LAB Startle Response System (San Diego Instrument, San Diego, Calif.). […] In the startle-alone trials, the basic auditory startle was measured, and in the prepulse-plus-startle trials, the amount of inhibition of normal startle induced by the prepulse was measured and expressed as a percentage of the basic startle. In the prepulse-alone trials, the normal response to a weak noise was measured as a control.

Q: Which “rescue of methamphetamine-induced PPI disruption” value does the source give for CN1C(=O)CN=C(c2ccccc2)c2cc(Cl)ccc21 [diazepam] here?
A: did not rescue

same assay, conditions: methamphetamine 2 mg/kg i.p. alone, without extract; 71 db prepulse; control mice 55.6±3.5%

Q: Which “PPI (inhibition of startle response to 115 db by prepulse)” value does the source give for CN[C@@H](C)Cc1ccccc1 [methamphetamine] here?
A: 42.4±4.1%

tested on: chronic motor tic disorder; assay: Case report: effect on tics in a child with chronic motor tic disorder; assay type: in vivo, human; settings: single patient, before taking the leaf extract
Protocol: Withholding all medications for 1 day, they received examination of catecholamine metabolites in the cerebrospinal fluid.
Subsequently, this patient, started to take the extract of the grounded leaves of Clerodendrum inerme, which was prepared by mixing the leaves with water by a blender and collecting the juice after filtration as resulted. […] Honey was added because of the bitter taste. […] The follow-up IQ test had been arranged, but the patient was absent on the examination day.
This patient followed up regularly in NTUH pediatric outpatient clinic for their seizure problem.

Q: Cc1nc2n(c(=O)c1CCN1CCC(c3noc4cc(F)ccc34)CC1)CCCC2 [Risperidone] was tested. Which “effect of earlier anti-tic medications on the involuntary movements of the patient” value (shortened to “effect of earlier anti-tic medications”) did it give?
A: in vain

Q: For Clc1cccc(Cl)c1N=C1NCCN1 [clonidine], which “effect of earlier anti-tic medications” value is on record?
A: without success

Q: How did the “effect of earlier anti-tic medications” value turn out when CN1C(=O)CN=C(c2ccccc2)c2cc(Cl)ccc21 [diazepam] was run?
A: in vain

Q: With O=C(CCCN1CCC(O)(c2ccc(Cl)cc2)CC1)c1ccc(F)cc1 [haloperidol] as the compound, how does the “effect of earlier anti-tic medications” value read?
A: in vain

Q: How did the “effect of earlier anti-tic medications” value turn out when CCCN1C[C@H](CSC)C[C@@H]2c3cccc4[nH]cc(c34)C[C@H]21 [pergolide] was run?
A: without success

Q: With CCN1CCCC1CNC(=O)c1cc(S(N)(=O)=O)ccc1OC (stereo not drawn) [sulpiride] as the compound, how does the “effect of earlier anti-tic medications” value read?
A: without success

Q: With biperidal as the compound, how does the “effect of earlier anti-tic medications” value read?
A: without success
